# Experiments:
# Assay type in all cases: in vivo, male Sprague-Dawley I.O.P.S. rats
# [1] = system: granuloma; test: Local anti-inflammatory activity: inhibition of granuloma formation around implanted cotton wool pellet; settings: for R 1 (relative local anti-inflammatory activity compared with betamethasone 17,21-dipropionate): D.P.B. = 1, calculated from ED50; for R 1 (relative local anti-inflammatory activity compared with betamethasone 17,21-dipropionate) / ED50 (local anti-inflammatory activity, 50% inhibition in granuloma weight): Table 1; for activity compared with betamethasone 17,21-dipropionate (times greater): local anti-inflammatory test; for ED50 (local anti-inflammatory activity, 50% inhibition in granuloma weight): rat, cotton pellet granuloma, six days after implantation
# Description: A. Winter and C. C. Porter (J. Am. Pharm. Ass. 1957, 46, 9, pages 515-519).
# (§1) The principle of the test consists in implanting a pellet of cotton wool in the dorsal subcutaneous tissue of the animal. The corticoids to be studied are added to the pellet so that the following tests can be carried out:
# (1) Determination of the local anti-inflammatory activity
# The presence of products within the pellet may inhibit or prevent the formation of a granuloma.
# (§2) The animals are divided into random homogeneous groups of 10 male Sprague-Dawley I.O.P.S. rats with a body weight of between 100 and 120 grams.
# (§3) The pellets to be implanted weigh from 35 to 40 mg and are prepared from balls of dental cotton wool. Before being inserted, each pellet is weighed and impregnated with the precise quantity of the product which is to be studied, dissolved in 0.2 ml of chloroform. The chloroform is eliminated by evaporation over a period of 24 hours at ambient temperature.
# (§4) Before implantation, each pellet is impregnated with a solution of antibiotics:
# Streptomycin 0.1 gram/ml.
# (§5) The animals are anaesthetised with ether, and then two pellets are implanted in each animal in the dorsal subcutaneous tissue, on each side of the median line:
# (§6) on the left, the pellet containing the product to be tested (treated animal) or the carrier only (control animal);
# (§7) on the right, the pellet containing the carrier only.
# (§8) The animals are given normal food and are sacrificed six days after the pellets have been implanted.
# (1) Local anti-inflammatory activity
# The pellets surrounded by granulomatous tissue are carefully removed and weighed, and then dried until a constant weight is obtained.
# The relative activity of the test products compared with betamethasone 17,21-dipropionate is calculated according to the following equation: [formula]
# [2] = system: thymus; test: Systemic activity after local administration: effect on the weight of the thymus; settings: rat, in vivo, 8640 min
# Description: (§9) The pharmacological activity of the products described in the invention was tested in the rat using a technique similar to that described by C. A. Winter and C. C. Porter (J. Am. Pharm. Ass. 1957, 46, 9, pages 515-519).
# as §1
# (§10) (2) Determination of the systemic activity of the products after local administration
# (§11) Local application of the corticoids may result, inter alia, in:
# (a) a reduction in the defence systems of the organism, the most notable sign of which is a reduction in the weight of the animals' thymuses.
# as §2, §3, §4, §5, §6, §7, §8
# (2) Determination of the systemic effect
# The thymuses are taken from the same animals and weighed. Using the same type of calculation, an ED 50 is determined, which corresponds to the dosage of product resulting in a 50% decrease in weight of the thymuses, compared with the control animals.
# [3] = Systemic activity after local administration: effect on weight gain; settings: rat, in vivo, 8640 min
# Description: as §9, §1, §10, §11
# (b) Disruption of the protein metabolism which causes tissue fusion, resulting in an inhibition of the weight increase in animals.
# as §2, §3, §4, §5, §6, §7, §8
# (b) Effect on weight gain
# The weight gain over six days is determined on the animals before they are sacrificed.
# The activity of the products was expressed as the percentage inhibition in the weight gain of the treated animals compared with the weight gain in the control animals.
# The ED 30 which corresponds to a 30% inhibition in the weight gain was determined.
compound,measurement,setting,value
"CCC(=O)OC1(C(=O)CSC(=O)CC)C(C)CC2C3CCC4=CC(=O)C=CC4(C)C3(F)C(O)CC21C (stereo not drawn) [Ex. 11, 9α-fluoro-11β-hydroxy-16β-methyl-pregna-1,4-diene-3,20-dione (or betamethasone) 17-propionate, 21-thiopropionate]","R 1 (relative local anti-inflammatory activity compared with betamethasone 17,21-dipropionate)",[1],134
same,"activity compared with betamethasone 17,21-dipropionate (times greater)",[1],more than 100 times
same,"ED50 (local anti-inflammatory activity, 50% inhibition in granuloma weight)",[1],0.012 mg/pellet
same,ED50 (50% decrease in weight of the thymuses),[2],0.46 mg/pellet
same,R 2 (relative effect on thymus weight compared with D.P.B.),[2],1.9
same,ED30 (30% inhibition in the weight gain),[3],0.8 mg/pellet
same,R 3 (relative activity on weight gain compared with D.P.B.),[3],1
"CCCCC(=O)OC1(C(=O)CSC(=O)CCCC)C(C)CC2C3CCC4=CC(=O)C=CC4(C)C3(F)C(O)CC21C (stereo not drawn) [Ex. 12, 9α-fluoro-11β-hydroxy-16β-methyl-pregna-1,4-diene-3,20-dione (or betamethasone) 17-valerate, 21-thiovalerate]","R 1 (relative local anti-inflammatory activity compared with betamethasone 17,21-dipropionate)",[1],> 129
same,"activity compared with betamethasone 17,21-dipropionate (times greater)",[1],more than 100 times
same,"ED50 (local anti-inflammatory activity, 50% inhibition in granuloma weight)",[1],< 0.0125 mg/pellet
same,ED50 (50% decrease in weight of the thymuses),[2],> 0.8 mg/pellet
same,R 2 (relative effect on thymus weight compared with D.P.B.),[2],< 1
same,ED30 (30% inhibition in the weight gain),[3],> 0.8 mg/pellet
same,R 3 (relative activity on weight gain compared with D.P.B.),[3],< 1
"CCCCC(=O)OC1(C(=O)CSC(C)=O)C(C)CC2C3CCC4=CC(=O)C=CC4(C)C3(F)C(O)CC21C (stereo not drawn) [Ex. 13, 9α-fluoro-11β-hydroxy-16β-methyl-pregna-1,4-diene-3,20-dione (or betamethasone) 17-valerate, 21-thioacetate]","R 1 (relative local anti-inflammatory activity compared with betamethasone 17,21-dipropionate)",[1],32.2
same,"ED50 (local anti-inflammatory activity, 50% inhibition in granuloma weight)",[1],0.050 mg/pellet
same,ED50 (50% decrease in weight of the thymuses),[2],0.8 mg/pellet
same,R 2 (relative effect on thymus weight compared with D.P.B.),[2],1.1
same,ED30 (30% inhibition in the weight gain),[3],0.65 mg/pellet
same,R 3 (relative activity on weight gain compared with D.P.B.),[3],1.23
"CC(=O)OC1(C(=O)CSC(=O)CC(C)(C)C)C(C)CC2C3CCC4=CC(=O)C=CC4(C)C3(F)C(O)CC21C (stereo not drawn) [Ex. 14, 9α-fluoro-11β-hydroxy-16α-methyl-pregna-1,4-diene-3,20-dione (or dexamethasone) 17-acetate, 21-thio-tert.butyl-acetate]","R 1 (relative local anti-inflammatory activity compared with betamethasone 17,21-dipropionate)",[1],537
same,"activity compared with betamethasone 17,21-dipropionate (times greater)",[1],more than 100 times
same,"ED50 (local anti-inflammatory activity, 50% inhibition in granuloma weight)",[1],0.003 mg/pellet
same,ED50 (50% decrease in weight of the thymuses),[2],0.33 mg/pellet
same,R 2 (relative effect on thymus weight compared with D.P.B.),[2],2.6
same,ED30 (30% inhibition in the weight gain),[3],0.015 mg/pellet
same,R 3 (relative activity on weight gain compared with D.P.B.),[3],53
"CCC(=O)OC1(C(=O)CSC(=O)CC)C(C)CC2C3CCC4=CC(=O)C=CC4(C)C3(Cl)C(O)CC21C (stereo not drawn) [Ex. 15, 9α-chloro-11β-hydroxy-16β-methyl-pregna-1,4-diene-3,20-dione (or beclomethasone) 17-propionate, 21-thiopropionate]","R 1 (relative local anti-inflammatory activity compared with betamethasone 17,21-dipropionate)",[1],> 322
same,"activity compared with betamethasone 17,21-dipropionate (times greater)",[1],more than 100 times
same,"ED50 (local anti-inflammatory activity, 50% inhibition in granuloma weight)",[1],< 0.005 mg/pellet
same,ED50 (50% decrease in weight of the thymuses),[2],2.4 mg/pellet
same,R 2 (relative effect on thymus weight compared with D.P.B.),[2],0.36
same,ED30 (30% inhibition in the weight gain),[3],0.56 mg/pellet
same,R 3 (relative activity on weight gain compared with D.P.B.),[3],1.42
"CCCCC(=O)SCC(=O)C1(OC(=O)CC)C(C)CC2C3CCC4=CC(=O)C=CC4(C)C3(Cl)C(O)CC21C (stereo not drawn) [Ex. 16, 9α-chloro-11β-hydroxy-16β-methyl-pregna-1,4-diene-3,20-dione (or beclomethasone) 17-propionate, 21-thiovalerate]","R 1 (relative local anti-inflammatory activity compared with betamethasone 17,21-dipropionate)",[1],13.4
same,"ED50 (local anti-inflammatory activity, 50% inhibition in granuloma weight)",[1],0.120 mg/pellet
same,ED50 (50% decrease in weight of the thymuses),[2],> 1 mg/pellet
same,R 2 (relative effect on thymus weight compared with D.P.B.),[2],< 0.86
same,ED30 (30% inhibition in the weight gain),[3],> 1.0 mg/pellet
same,R 3 (relative activity on weight gain compared with D.P.B.),[3],< 0.8
"CCCCC(=O)OC1(C(=O)CSC(C)=O)C(C)CC2C3CCC4=CC(=O)C=CC4(C)C3(Cl)C(O)CC21C (stereo not drawn) [Ex. 17, 9α-chloro-11β-hydroxy-16β-methyl-pregna-1,4-diene-3,20-dione (or beclomethasone) 17-valerate, 21-thioacetate]","R 1 (relative local anti-inflammatory activity compared with betamethasone 17,21-dipropionate)",[1],8.9
same,"ED50 (local anti-inflammatory activity, 50% inhibition in granuloma weight)",[1],0.180 mg/pellet
same,ED50 (50% decrease in weight of the thymuses),[2],> 1 mg/pellet
same,R 2 (relative effect on thymus weight compared with D.P.B.),[2],< 0.86
same,ED30 (30% inhibition in the weight gain),[3],> 1.0 mg/pellet
same,R 3 (relative activity on weight gain compared with D.P.B.),[3],< 0.8
"CCCCC(=O)OC1(C(=O)CSC(=O)CCCC)C(C)CC2C3CCC4=CC(=O)C=CC4(C)C3(Cl)C(O)CC21C (stereo not drawn) [Ex. 18, 9α-chloro-11β-hydroxy-16β-methyl-pregna-1,4-diene-3,20-dione (or beclomethasone) 17-valerate, 21-thiovalerate]","R 1 (relative local anti-inflammatory activity compared with betamethasone 17,21-dipropionate)",[1],16.8
same,"ED50 (local anti-inflammatory activity, 50% inhibition in granuloma weight)",[1],0.096 mg/pellet
same,ED50 (50% decrease in weight of the thymuses),[2],> 1 mg/pellet
same,R 2 (relative effect on thymus weight compared with D.P.B.),[2],< 0.86
same,ED30 (30% inhibition in the weight gain),[3],> 1.0 mg/pellet
same,R 3 (relative activity on weight gain compared with D.P.B.),[3],< 0.8
"C=C1C[C@H]2[C@@H]3CCC4=CC(=O)C=C[C@]4(C)[C@H]3[C@@H](O)C[C@]2(C)[C@@]1(OC(=O)CC)C(=O)CSC(=O)CC [Ex. 19, 11β-hydroxy-16-methylene-pregna-1,4-diene-3,20 dione (or prednylidene)17-propionate, 21-thiopropionate]","R 1 (relative local anti-inflammatory activity compared with betamethasone 17,21-dipropionate)",[1],0.89
same,"ED50 (local anti-inflammatory activity, 50% inhibition in granuloma weight)",[1],1.800 mg/pellet
same,ED50 (50% decrease in weight of the thymuses),[2],7 mg/pellet
same,R 2 (relative effect on thymus weight compared with D.P.B.),[2],0.12
same,ED30 (30% inhibition in the weight gain),[3],0.015 mg/pellet
same,R 3 (relative activity on weight gain compared with D.P.B.),[3],53

# Source: patent publication US4427671A, “Steroids esterified in position 17 and thioesterified in position 21, a process for preparing them and their use as medicaments” (priority 1981, dated 1984)
